Values joined by “and” are separate entries in the source; they are usually repeats but may differ in a detail not shown here. Identical values can stand only once.
Tests used:
[1] = system: epimastigote forms of T. cruzi; experiment: Cell death profile, 7-AAD / annexin V-PE labeling; format: cell-based, Trypanosoma cruzi; conditions: 157 and 314 µM, 24 h
Procedure: Epimastigote forms were used to analyze the cell death profile through labeling with AxPE and 7-AAD. Initially, the cells were divided into four cell populations: viable cells—with a low level of labeling (7AAD−/AxPE−); necrotic cells—labeled with 7-AAD (7AAD+/AxPE−); apoptotic cells—labeled with annexin V-PE (7AAD−/AxPE+); and cells in late apoptosis—doubly labeled (7AAD+/AxPE+).
The cells were treated with 11 for 24 h at concentrations of 157 and 314 µM.
The epimastigote forms of T. cruzi were cultivated at a density of 10^6 cells/mL in the presence of 11 (157 and 314 µM) for 24 h in a stove. Then, the cells were transferred to cytometry tubes, centrifuged at 4000 RPM for 5 min and washed twice with phosphate-buffered saline and binding buffer (pH 7.4; a compound of HEPES solution 10 mM; NaCl 140 mM; and CaCl2 2.5 mm). After the last centrifugation, the pellet was resuspended in 100 µL binding buffer, 5 µL 7-AAD (0.5 mg/mL), and 5 µL Ax/PE. The procedure was performed using a commercial kit (Annexin V PE Apoptosis Detection Kit I, BD Biosciences) and following the manufacturer’s guidelines. After 15 min of incubation in the dark, 400 µL of binding buffer was added to each tube, and the cells were analyzed on the FACSCalibur (BD Biosciences). For each tube, a minimum of 10^4 cells were analyzed to quantify the percentage of unlabeled cells and were either singly or double labeled with 7-AAD and Ax/PE. For this, an argon laser (488 nm) was used to excite the fluorochromes. Ax/PE-labeled cells were read by the FL2 detector (563 to 606 nm, yellow fluorescence), while 7-AAD-labeled cells were read at 615 to 645 nm wavelength (red fluorescence, FL3 detector).

[2] = system: T. cruzi epimastigotes; experiment: Mitochondrial transmembrane potential, rhodamine 123 flow cytometry; format: cell-based, Trypanosoma cruzi; conditions: 157 and 314 µM, 24 h
Procedure: In addition, the mitochondrial damage exerted by 11 on the parasite was evaluated through the mitochondrial transmembrane potential assay using the fluorescent dye rhodamine 123 (Rho 123).
Initially, 11 (157 and 314 µM) and epimastigote forms (10^6 cells/mL) were added in 24-well plates. After 24 h, the cells were centrifuged and washed with phosphate-buffered saline. Subsequently, the cells were resuspended in 100 µL of phosphate-buffered saline, and 5 µL of Rho123 solution (10 µg/mL) was added. Thus, the samples were incubated in the dark for 30 min, washed, and resuspended with phosphate-buffered saline (500 µL/tube) for analysis by flow cytometry. Results were evaluated by relative fluorescence intensity, calculated as described above.

[3] = system: epimastigote forms of T. cruzi, Y strain; experiment: Trypanocidal activity on epimastigote forms (growth inhibition, Neubauer chamber count); format: cell-based, Trypanosoma cruzi
Procedure: (§1) Initially, the prepared esters were submitted to in vitro tests using the microdilution technique in 96-well plates to evaluate the trypanocidal activity against the epimastigote evolutionary form at different concentrations (200–3.12 μg/mL). Then, the compounds with the best activity were tested against the trypomastigote form of T. cruzi. In both assays, IC50 values were calculated; a compound is considered to have trypanocidal activity when IC50 <40 μM [21]. The results are expressed in Table 1.
Initially, epimastigotes were cultured and distributed in 96-well plates at a density of 10^6 cells/mL in liver infusion tryptose medium supplemented with 10% fetal bovine serum (FBS) and 1% antibiotic. Then, the cells were treated with piplartine analogues at different concentrations and incubated at 28 °C for 24 h. To quantify the growth inhibition of the parasites, a Neubauer chamber was used, and the IC50 was defined.

[4] = system: trypomastigote forms of T. cruzi, Y strain; experiment: Trypanocidal activity on trypomastigote forms (viability by counting); format: cell-based, Trypanosoma cruzi
Procedure: as §1
Trypomastigote forms were obtained by infecting LLC-MK2 cells with the parasite; in this way, the cells were incubated for 24 h in T-25/75 cm^2 flasks at 37 °C in an atmosphere with 5% CO2 in DMEM medium supplemented with 2% FBS and 1% antibiotic. Subsequently, the trypomastigote forms were distributed in 96-well plates treated with piplartine analogues at different concentrations (200; 100; 50; 25; 12.5; 6.25; 3.12 μg/mL) and incubated at 37 °C for 24 h. The assessment of cell viability was performed by counting, and the IC50 was defined.

[5] = system: epimastigote cells of T. cruzi; experiment: Cytoplasmic reactive oxygen species, DCFH-DA flow cytometry; format: cell-based, Trypanosoma cruzi; conditions: 157 and 314 µM, 24 h
Procedure: To elucidate the mechanism of action of 11, the increase in the concentration of ROS inside epimastigote cells of T. cruzi was evaluated through fluorescent techniques using 2′,7′–dichlorofluorescein diacetate (DCFH-DA). The results are illustrated in Figure 2 and Figure 3.
The DCFH-DA assay was used to evaluate the increase in ROS concentration in the cytoplasm of epimastigote cells treated with 11. Initially, 10^6 epimastigote cells/mL were added to 24-well plates in the presence of 11 (157 μM and 314 µM). After 3 h, 10 µL of a solution of DCFH-DA (20 µM in DMSO) was added. After 24 h, the cells were centrifuged (2800 RPM for 7 min), washed, and resuspended in 500 µL of phosphate buffered saline for flow cytometer analysis. Thus, the level of labeling in each group was analyzed by the geometric mean of the fluorescence intensity, and the results were expressed as relative fluorescence intensity according to the following formula (Equation (1)): (1) Relative fluorescence=mTest/mControl mTEST = geometric mean of the interest group; mCONTROL = geometric mean of the control group.

[6] = system: LLC-MK2 cells; experiment: In vitro cytotoxicity, MTT assay; format: cell-based, Rhesus monkey
Procedure: (§2) The compounds were considered selective for the parasite when SI ≥ 10 [21]. The results are expressed in Table 2.
(§3) For the cytotoxicity analysis, the (3-[4,5-dimethylthiazol-2-yl]-2,5 diphenyl tetrazolium bromide) (MTT) assay was used, in which the LLC-MK2 cells were cultured in Dulbecco’s Modified Eagle Medium (DMEM), then exposed to the piplartine analogues at different concentrations (25–200 μg/mL) and incubated for 24 h at 37 °C. Then MTT was added, and the cells were incubated for 4 h, after which 10% sodium dodecyl sulfate was added. […] To calculate the relative cell viability, cells treated only with sterile phosphate-buffered saline were used as a negative control. The experiments were conducted in triplicates.

[7] = In vitro cytotoxicity, MTT assay; format: cell-based, Rhesus monkey; conditions: Rhesus monkey, LLC-MK2 renal epithelial cells; MTT, 24 h; read-out: LLCK-MK2 CC50
Procedure: as §2, §3

[8] = system: epimastigote forms of T. cruzi; experiment: Scanning electron microscopy of morphological changes; format: cell-based, Trypanosoma cruzi; conditions: 24 h of treatment, 157 µM
Procedure: In addition, scanning electron microscopy was used to analyze possible morphological alterations of epimastigote forms treated with compound 11. […] Similar results were obtained by treating epimastigote forms with pentyl p-coumarate.
To evaluate the changes induced by 11 in the ultrastructure of T. cruzi, the epimastigote forms were incubated with them for 24 h. After this period, the samples were centrifuged (5000 rpm; 10 min), the supernatant discarded, and the pellet resuspended in glutaraldehyde solution (2.5%) and incubated for 2 h. The fixed samples were again centrifuged and exposed to increasing concentrations of ethanol (30, 50, 70, 90, and 100%) for dehydration, followed by centrifugation (5000 rpm; 5 min). Finally, the cells were transferred to the surface of circular coverslips (15 mm) and dried in a CO2 oven. The coverslips were covered with a gold layer (20 nm thick) using the QT150 ES-Quorum Metallizer and analyzed in a Quanta 450 FEG-FEI scanning electron microscope to observe changes in the three-dimensional structure of the epimastigote forms of T. cruzi.

[9] = system: trypomastigote forms of T. cruzi; parameters: method as in PMID 31775321; conditions: read-out: IC50 trypomastigote form; cited from earlier work
[10] = system: epimastigote form of T. cruzi; parameters: method as in PMID 31775321; conditions: cited from earlier work
[11] = Trypanosoma cruzi, Y strain, 24 h

Compound	apoptotic cells (7AAD−/AxPE+) vs control [1]	cells in late apoptosis (7AAD+/AxPE+) vs control [1]	percentage of necrotic cells (7AAD+/AxPE−) vs control [1]	percentage of viable cells (7AAD−/AxPE−) vs control [1]	accumulation of rhodamine 123 (mitochondrial transmembrane potential) vs control [2]	IC50 [3, 11]	Selectivity Index (SI) Epimastigote ([3]; ratio CC50 (LLC-MK2) / IC50 epimastigote)	IC50 [4, 11]	Selectivity Index (SI) Trypomastigote ([4]; ratio CC50 (LLC-MK2) / IC50 trypomastigote)	relative fluorescence DCFH-DA (cytoplasmic ROS) vs control [5]	toxicity on LLC-MK2 host cells (in words) ([6]; highest concentration tested (200 μg/mL))	selectivity for the parasite (SI) ([6]; parasite form not specified, conclusions)	CC50 at 24 h [7]	ultrastructural alterations by scanning electron microscopy [8]	IC50 [9]	IC50 [10]
COc1cc(/C=C/C(=O)OCc2ccco2)cc(OC)c1OC [Compound 11, (E)-furan-2-ylmethyl 3-(3,4,5-trimethoxyphenyl)acrylate]	increase in apoptotic cells	increase in cells in late apoptosis	increase in the percentage of necrotic cells	reduction in the percentage of viable cells	reduction in the accumulation of rhodamine	8.98 µg/mL and 28.2 µM	>22.2	15 µg/mL and 47 µM	>13.4	increase in relative fluorescence	did not show toxicity at the highest concentration tested	> 10	> 200 µg/mL and > 628 µM	pore formation and content leakage in the cytoplasm		
CCCCCOC(=O)/C=C/c1ccc(O)cc1 [pentyl p-coumarate]															61.6 µM	5.16 µM

Reference: PMC10254306, “Piplartine-Inspired 3,4,5-Trimethoxycinnamates: Trypanocidal, Mechanism of Action, and In Silico Evaluation” (Molecules, 2023)
